Assay results from patent US20230340011A1 (Asteroid Therapeutics, priority 2022, published 2023).

Target: SREBP-2 (Homo sapiens (Human), UniProt Q12772)
Assay: In vitro assay SREBP-2: PathHunter U2OS SREBP-2 Nuclear Translocation Cell Line, U18666A-stimulated
Format: cell-based
Conditions: PathHunter U2OS SREBP-2 nuclear translocation cells, U18666A 10 μM, overnight (16 hours)

Compound	IC50
CNC(=O)c1cncc(O[C@@H](C)[C@H]2CC[C@H]3[C@@H]4CC=C5C[C@@H](O)CC[C@]5(C)[C@H]4CC[C@]23C)c1 [Example 266, 5-((S)-1-((3S,8S,9S,10R,13S,14S,17S)-3-hydroxy-10,13-dimethyl-2,3,4,7,8,9,10,11,12,13,14,15,16,17-tetradecahydro-1H-cyclopenta[a]phenanthren-17-yl)ethoxy)-N-methylnicotinamide]	250 to 1000 nM
CNC(=O)c1cccc(OC[C@@H](C)[C@H]2CC[C@H]3[C@@H]4CC=C5C[C@@H](O)CC[C@]5(C)[C@H]4CC[C@]23C)n1 [Example 448, 6-((S)-2-((3S,8S,9S,10R,13S,14S,17R)-3-hydroxy-10,13-dimethyl-2,3,4,7,8,9,10,11,12,13,14,15,16,17-tetradecahydro-1H-cyclopenta[a]phenanthren-17-yl)propoxy)-N-methylpicolinamide]	250 to 1000 nM
C[C@H](CCC(=O)N1CCN(C(N)=O)CC1)[C@H]1CC[C@H]2[C@@H]3CC=C4C[C@@H](O)CC[C@]4(C)[C@H]3CC[C@]12C [Example 4, 4—((R)-4-((3S,8S,9S,10R,13R,14S,17R)-3-hydroxy-10,13-dimethyl-2,3,4,7,8,9,10,11,12,13,14,15,16,17-tetradecahydro-1H-cyclopenta[a]phenanthren-17-yl)pentanoyl)piperazine-1-carboxamide]	< 250 nM
C[C@H](CCC(=O)N1CC[C@H](NC(=O)c2cnccn2)C1)[C@H]1CC[C@H]2[C@@H]3CC=C4C[C@@H](O)CC[C@]4(C)[C@H]3CC[C@]12C [Example 529, N—((S)-1-((R)-4-((3S,8S,9S,10R,13R,14S,17R)-3-hydroxy-10,13-dimethyl-2,3,4,7,8,9,10,11,12,13,14,15,16,17-tetradecahydro-1H-cyclopenta[a]phenanthren-17-yl)pentanoyl)pyrrolidin-3-yl)pyrazine-2-carboxamide]	< 250 nM
CNC(=O)c1cccnc1OC[C@@H](C)[C@H]1CC[C@H]2[C@@H]3CC=C4C[C@@H](O)CC[C@]4(C)[C@H]3CC[C@]12C [Example 451, 2-((S)-2-((3S,8S,9S,10R,13S,14S,17R)-3-hydroxy-10,13-dimethyl-2,3,4,7,8,9,10,11,12,13,14,15,16,17-tetradecahydro-1H-cyclopenta[a]phenanthren-17-yl)propoxy)-N-methylnicotinamide]	< 250 nM
CC(=O)N1CCN(C(=O)CC[C@@H](C)[C@H]2CC[C@H]3[C@@H]4CC=C5C[C@@H](O)CC[C@]5(C)[C@H]4CC[C@]23C)CC1 [Example 3, (R)-1-(4-acetylpiperazin-1-yl)-4-((3S,8S,9S,10R,13R,14S,17R)-3-hydroxy-10,13-dimethyl-2,3,4,7,8,9,10,11,12,13,14,15,16,17-tetradecahydro-1H-cyclopenta[a]phenanthren-17-yl)pentan-1-one]	< 250 nM
C[C@H](CCC(=O)N1CC[C@H](NC(=O)N(C)C)C1)[C@H]1CC[C@H]2[C@@H]3CC=C4C[C@@H](O)CC[C@]4(C)[C@H]3CC[C@]12C [Example 534, 3-((S)-1-((R)-4-((3S,8S,9S,10R,13R,14S,17R)-3-hydroxy-10,13-dimethyl-2,3,4,7,8,9,10,11,12,13,14,15,16,17-tetradecahydro-1H-cyclopenta[a]phenanthren-17-yl)pentanoyl)pyrrolidin-3-yl)-1,1-dimethylurea]	< 250 nM
C[C@H](Oc1cnccc1CO)[C@H]1CC[C@H]2[C@@H]3CC=C4C[C@@H](O)CC[C@]4(C)[C@H]3CC[C@]12C [Example 437, (3S,8S,9S,10R,13S,14S,17S)-17-((S)-1-((4-(hydroxymethyl)pyridin-3-yl)oxy)ethyl)-10,13-dim ethyl-2,3,4,7,8,9,10,11,12,13,14,15,16,17-tetradecahydro-1H-cyclopenta[a]phenanthren-3-ol]	250 to 1000 nM
Cc1noc(OC2CCN(C(=O)CC[C@@H](C)[C@H]3CC[C@H]4[C@@H]5CC=C6C[C@@H](O)CC[C@]6(C)[C@H]5CC[C@]34C)CC2)n1 [Example 506, (R)-4-((3S,8S,9S,10R,13R,14S,17R)-3-hydroxy-10,13-dimethyl-2,3,4,7,8,9,10,11,12,13,14,15,16,17-tetradecahydro-1H-cyclopenta[a]phenanthren-17-yl)-1-(4-((3-methyl-1,2,4-oxadiazol-5-yl)oxy)piperidin-1-yl)pentan-1-one]	< 250 nM
CC(=O)N1CCC(C(=O)N(C)CC[C@@H](C)[C@H]2CC[C@H]3[C@@H]4CC=C5C[C@@H](O)CC[C@]5(C)[C@H]4CC[C@]23C)CC1 [Example 294, 1-acetyl-N—((R)-3-((3S,8S,9S,10R,13R,14S,17R)-3-hydroxy-10,13-dimethyl-2,3,4,7,8,9,10,11,12,13,14,15,16,17-tetradecahydro-1H-cyclopenta[a]phenanthren-17-yl)butyl)-N-methylpiperidine-4-carboxamide]	250 to 1000 nM
COC(=O)N1CCN(C(=O)NC[C@@H](C)[C@H]2CC[C@H]3[C@@H]4CC=C5C[C@@H](O)CC[C@]5(C)[C@H]4CC[C@]23C)CC1 [Example 467, Methyl 4-(((S)-2-((3S,8S,9S,10R,13S,14S,17R)-3-hydroxy-10,13-dimethyl-2,3,4,7,8,9,10,11,12,13,14,15,16,17-tetradecahydro-1H-cyclopenta[a]phenanthren-17-yl)propyl)carbamoyl)piperazine-1-carboxylate]	< 250 nM
CC(=O)N1CCC(C(=O)N(C)CC[C@@H](C)[C@H]2CC[C@H]3[C@@H]4CC=C5C[C@@H](O)CC[C@]5(C)[C@H]4CC[C@]23C)CC1 [Example 408, 1-acetyl-N—((R)-3-((3S,8S,9S,10R,13R,14S,17R)-3-hydroxy-10,13-dimethyl-2,3,4,7,8,9,10,11,12,13,14,15,16,17-tetradecahydro-1H-cyclopenta[a]phenanthren-17-yl)butyl)-N-methylpiperidine-4-carboxamide]	250 to 1000 nM
C[C@H](CCC(=O)N1CCC[C@@H](Oc2ccncc2)C1)[C@H]1CC[C@H]2[C@@H]3CC=C4C[C@@H](O)CC[C@]4(C)[C@H]3CC[C@]12C [Example 521, (R)-4-((3S,8S,9S,10R,13R,14S,17R)-3-hydroxy-10,13-dimethyl-2,3,4,7,8,9,10,11,12,13,14,15,16,17-tetradecahydro-1H-cyclopenta[a]phenanthren-17-yl)-1-((R)-3-(pyridin-4-yloxy)piperidin-1-yl)pentan-1-one]	< 250 nM
C#CC1(OC)CCN(C(=O)CC[C@@H](C)[C@H]2CC[C@H]3[C@@H]4CC=C5C[C@@H](O)CC[C@]5(C)[C@H]4CC[C@]23C)CC1 [Example 330, (R)-1-(4-ethynyl-4-methoxypiperidin-1-yl)-4-((3S,8S,9S,10R,13R,14S,17R)-3-hydroxy-10,13-dimethyl-2,3,4,7,8,9,10,11,12,13,14,15,16,17-tetradecahydro-1H-cyclopenta[a]phenanthren-17-yl)pentan-1-one]	< 250 nM
CCN(CC)C(=O)C(=O)O[C@@H](C)[C@H]1CC[C@H]2[C@@H]3CC=C4C[C@@H](O)CC[C@]4(C)[C@H]3CC[C@]12C [Example 154, (1S)-1-[(1S,3aS,3bS,7S,9aR,9bS,11aS)-7-hydroxy-9a,11a-dimethyl-1H,2H,3H,3aH,3bH,4H,6H,7H,8H,9H,9aH,9bH,10H,11H,11aH-cyclopenta[a]phenanthren-1-yl]ethyl (diethylcarbamoyl)formate]	< 250 nM
CNC(=O)NC[C@@H](C)[C@H]1CC[C@H]2[C@@H]3CC=C4C[C@@H](O)CC[C@]4(C)[C@H]3CC[C@]12C [Example 464, 1-((S)-2-((3S,8S,9S,10R,13S,14S,17R)-3-hydroxy-10,13-dimethyl-2,3,4,7,8,9,10,11,12,13,14,15,16,17-tetradecahydro-1H-cyclopenta[a]phenanthren-17-yl)propyl)-3-methylurea]	250 to 1000 nM
C[C@H](CCC(=O)N1CCC(O)(CC(F)(F)F)CC1)[C@H]1CC[C@H]2[C@@H]3CC=C4C[C@@H](O)CC[C@]4(C)[C@H]3CC[C@]12C [Example 152, (R)-4-((3S,8S,9S,10R,13R,14S,17R)-3-hydroxy-10,13-dimethyl-2,3,4,7,8,9,10,11,12,13,14,15,16,17-tetradecahydro-1H-cyclopenta[a]phenanthren-17-yl)-1-(4-hydroxy-4-(2,2,2-trifluoroethyl)piperidin-1-yl) pentan-1-one]	< 250 nM
C[C@H](CCC(=O)N1CCCC(c2ccnnc2)C1)[C@H]1CC[C@H]2[C@@H]3CC=C4C[C@@H](O)CC[C@]4(C)[C@H]3CC[C@]12C (stereo partly drawn) [Example 345, (4R)-4-((3S,8S,9S,10R,13R,14S,17R)-3-hydroxy-10,13-dimethyl-2,3,4,7,8,9,10,11,12,13,14,15,16,17-tetradecahydro-1H-cyclopenta[a]phenanthren-17-yl)-1-(3-(pyridazin-4-yl)piperidin-1-yl)pentan-1-one]	250 to 1000 nM
CC(=O)N(C)C1CN(C(=O)CC[C@@H](C)[C@H]2CC[C@H]3[C@@H]4CC=C5C[C@@H](O)CC[C@]5(C)[C@H]4CC[C@]23C)C1 [Example 325, N-(1-((R)-4-((3S,8S,9S,10R,13R,14S,17R)-3-hydroxy-10,13-dimethyl-2,3,4,7,8,9,10,11,12,13,14,15,16,17-tetradecahydro-1H-cyclopenta[a]phenanthren-17-yl)pentanoyl)azetidin-3-yl)-N-methylacetamide]	250 to 1000 nM
Cc1ccncc1O[C@@H](C)[C@H]1CC[C@H]2[C@@H]3CC=C4C[C@@H](O)CC[C@]4(C)[C@H]3CC[C@]12C [Example 433, (3S,8S,9S,10R,13S,14S,17S)-10,13-dimethyl-17-((S)-1-((4-methylpyridin-3-yl)oxy)ethyl)-2,3,4,7,8,9,10,11,12,13,14,15,16,17-tetradecahydro-1H-cyclopenta[a]phenanthren-3-ol]	250 to 1000 nM
(4R)-4-[(1R,3aS,3bS,7S,9aR,9bS,11aR)-7-hydroxy-9a,11a-dimethyl-1H,2H,3H,3aH,3bH,4H,6H,7H,8H,9H,9aH,9bH,10H,11H,11aH-cyclopenta[a]phenanthren-1-yl]-1-[(3R)-3-(pyrimidin-4-yloxy)piperidin-1-yl]pentan-1-one [Example 462]	< 250 nM
